Pest or weed control data for 29 compounds are collected here from patent publication US9212163B2, “Pesticidal compositions and processes related thereto” (Dow AgroSciences LLC, priority 2012, dated 2015).

The subject of assay [1] is Beet Armyworm (BAW) (Spodoptera exigua). Nature of the assay: Bioassay on Beet Armyworm (BAW), 128-well diet tray assay. It is filed as in vivo. As to conditions: Spodoptera exigua, read-out: BAW Rating; for pest or weed control at 50 µg/cm2, 50 µg/cm2: 168 h, % mortality, second instar larvae, 50 μg/cm^2 on artificial diet, 25° C., five to seven days, average of eight wells; for pest or weed control at 50 µg/cm2: Table 5: Prophetic Compounds Subsequently Exemplified. The gist of the method: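 Artificial diet treated with 50 μg/cm^2 compound in 90:10 acetone-water was dried, then one to five second-instar larvae were placed per well, eight wells per compound. Trays were held at 25° C., 14:10 light-dark for five to seven days, and percent mortality averaged across wells.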

For assay [2], the system named is Cabbage Looper (CL) (Trichoplusia ni). Nature of the assay: Bioassay on Cabbage Looper (CL), 128-well diet tray assay. It is filed as in vivo. The conditions noted are these: read-out: CL Rating; for pest or weed control at 50 µg/cm2, 50 µg/cm2: 168 h, % mortality, second instar larvae, 50 μg/cm^2 on artificial diet, 25° C., five to seven days, average of eight wells; for pest or weed control at 50 µg/cm2: Table 5: Prophetic Compounds Subsequently Exemplified. How it is done:
Certain molecules disclosed in this document were tested against BAW, CEW and CL using procedures described in the following examples. In the reporting of the results, the “BAW & CEW & CL Rating Table” was used (See Table Section).
Bioassays on CL (Trichoplusia ni)
Bioassays on CL were conducted using a 128-well diet tray assay. One to five second instar CL larvae were placed in each well (3 mL) of the diet tray that had been previously filled with 1 mL of artificial diet to which 50 μg/cm^2 of the test compound (dissolved in 50 μL of 90:10 acetone-water mixture) had been applied (to each of eight wells) and then allowed to dry. Trays were covered with a clear self-adhesive cover, and held at 25° C., 14:10 light-dark for five to seven days. Percent mortality was recorded for the larvae in each well; activity in the eight wells was then averaged. The results are indicated in the table entitled “Table 4: Assay Results Part 2” (See Table Section).

On to `O=C(NC1(C(=O)NCC(F)(F)F)CC1)c1ccc(/C=C/[C@H](c2cc(Cl)c(Cl)c(Cl)c2)C(F)(F)F)cc1C(F)(F)F` (single isomer, unassigned) [Compound F8A], for which the pest or weed control at 50 µg/cm2, 50 µg/cm2 in assay [1] and in assay [2] was 50 to 100% in each case.
For `N#Cc1cc(C(/C=C/c2ccc(C(=O)NC3(C(=O)NCC(F)(F)F)CC3)c(C(F)(F)F)c2)C(F)(F)F)ccc1F` (stereo not shown) [Compound P515], the pest or weed control at 50 µg/cm2 in assay [1] and in assay [2] was 50 to 100% each time.
With `O=C(NC1(C(=O)NCC(F)(F)F)CCC1)c1ccc(/C=C/C(c2cc(Cl)c(Cl)c(Cl)c2)C(F)(F)F)cc1Br` (stereo not shown) [Compound F5], the pest or weed control at 50 µg/cm2, 50 µg/cm2 in assay [1] and in assay [2] was 50 to 100% each time.
As for `N#Cc1cc(C(/C=C/c2ccc(C(=O)NC3(C(=O)NCC(F)(F)F)CC3)c(Br)c2)C(F)(F)F)ccc1F` (stereo not shown) [Compound P513], the pest or weed control at 50 µg/cm2 in assay [1] and in assay [2] was 50 to 100% each time.
As to `O=C(NC1(C(=O)NCC(F)(F)F)CC1)c1ccc(/C=C/C(c2ccc(Cl)c(Cl)c2)C(F)(F)F)cc1C(F)(F)F` (stereo not shown) [Compound P1095], the pest or weed control at 50 µg/cm2 in assay [1] and in assay [2] was 50 to 100% throughout.
For `O=C(NC1(C(=S)NCC(F)(F)F)CC1)c1ccc(/C=C/C(c2cc(Cl)c(Cl)c(Cl)c2)C(F)(F)F)cc1Br` (stereo not shown) [Compound P1009], the pest or weed control at 50 µg/cm2 in assay [1] and in assay [2] was 50 to 100% in each case.
On to `O=C(NC1(C(=S)NCC(F)(F)F)CC1)c1ccc(/C=C/C(c2cc(Cl)c(Cl)c(Cl)c2)C(F)(F)F)cc1C(F)(F)F` (stereo not shown) [Compound F6, (E)-4-(4,4,4-Trifluoro-3-(3,4,5-trichlorophenyl)but-1-enyl)-N-(1-(2,2,2-trifluoroethylcarbamothioyl)cyclopropyl)-2-(trifluoromethyl)benzamide], for which the pest or weed control at 50 µg/cm2, 50 µg/cm2 in assay [1] and in assay [2] was 50 to 100% in each case.
In the case of `O=C(NC1(C(=O)NCC(F)(F)F)CC1)c1ccc(/C=C/C(c2cc(Cl)cc(Cl)c2)C(F)(F)C(F)(F)F)cc1Br` (stereo not shown) [Compound P1043], the pest or weed control at 50 µg/cm2 in assay [1] and in assay [2] was 50 to 100% each time.
For the compound `O=C(NC1(C(=O)NCCC(F)(F)F)CC1)c1ccc(/C=C/C(c2cc(Br)cc(Br)c2)C(F)(F)F)cc1Br` (stereo not shown) [Compound P1213], the pest or weed control at 50 µg/cm2 in assay [1] and in assay [2] was 50 to 100% in each case.
As to `O=C(NC1(C(=O)NCC(F)(F)F)CCC1)c1ccc(/C=C/C(c2cc(Cl)c(Cl)c(Cl)c2)C(F)(F)F)cc1Cl` (stereo not shown) [Compound F4], the pest or weed control at 50 µg/cm2, 50 µg/cm2 in assay [1] and in assay [2] was 50 to 100% in each case.
Regarding `Cc1cc(/C=C/C(c2cc(Cl)c(Cl)c(Cl)c2)C(F)(F)F)ccc1C(=O)NC1(C(=O)NCC(F)(F)F)CC1` (stereo not shown) [Compound F2], the pest or weed control at 50 µg/cm2, 50 µg/cm2 in assay [1] and in assay [2] was 50 to 100% each time.
In the case of `O=C(NC1(C(=O)NCC(F)(F)F)CC1)c1ccc(/C=C/C(c2cc(Cl)c(Cl)c(Cl)c2)C(F)(F)F)cc1Br` (stereo not shown) [Compound F3], the pest or weed control at 50 µg/cm2, 50 µg/cm2 in assay [1] and in assay [2] was 50 to 100% throughout.
Regarding `O=C(NC1(C(=O)NCC(F)(F)F)CC1)c1ccc(/C=C/C(c2cc(Cl)c(Cl)c(Cl)c2)C(F)(F)F)cc1Cl` (stereo not shown) [Compound F8], the pest or weed control at 50 µg/cm2, 50 µg/cm2 in assay [1] and in assay [2] was 50 to 100% throughout.
With `O=C(NC1(C(=O)NCC(F)F)CC1)c1ccc(/C=C/C(c2cc(Br)cc(Br)c2)C(F)(F)F)cc1Br` (stereo not shown) [Compound P1193], the pest or weed control at 50 µg/cm2 in assay [1] and in assay [2] was 50 to 100% each time.
With `O=C(NC1(C(=O)NCCC(F)(F)F)CC1)c1ccc(/C=C/C(c2cc(Cl)c(Cl)c(Cl)c2)C(F)(F)F)cc1Br` (stereo not shown) [Compound P1033], the pest or weed control at 50 µg/cm2 in assay [1] and in assay [2] was 50 to 100% throughout.
With `O=C(NC1(C(=O)NCC(F)(F)F)CC1)c1ccc(/C=C/C(c2cc(Cl)c(Cl)cc2Cl)C(F)(F)F)cc1Br` (stereo not shown) [Compound P108], the pest or weed control at 50 µg/cm2 in assay [1] and in assay [2] was 50 to 100% throughout.
As to `O=C(NC1(C(=O)NCC(F)(F)F)CC1)c1ccc(/C=C/C(c2cc(Cl)cc(Br)c2)C(F)(F)F)cc1C(F)(F)F` (stereo not shown) [Compound P380], the pest or weed control at 50 µg/cm2 in assay [1] and in assay [2] was 50 to 100% each time.
Turning to `O=C(NC1(C(=O)NCC(F)(F)F)CC1)c1ccc(/C=C/C(c2cc(Cl)c(Cl)cc2Cl)C(F)(F)F)cc1C(F)(F)F` (stereo not shown) [Compound P110], the pest or weed control at 50 µg/cm2 in assay [1] and in assay [2] was 50 to 100% throughout.
Consider `Cc1cc(C(/C=C/c2ccc(C(=O)NC3(C(=O)NCC(F)(F)F)CC3)c(C(F)(F)F)c2)C(F)(F)F)ccc1Cl` (stereo not shown) [Compound P245], for which the pest or weed control at 50 µg/cm2 in assay [1] and in assay [2] was 50 to 100% in each case.
As to `Cc1cc(C(/C=C/c2ccc(C(=O)NC3(C(=O)NCC(F)(F)F)CC3)c(Br)c2)C(F)(F)F)ccc1F` (stereo not shown) [Compound P693], the pest or weed control at 50 µg/cm2 in assay [1] and in assay [2] was 50 to 100% in each case.
As to `O=C(NC1(C(=O)NCC(F)(F)F)CC1)c1ccc(/C=C/[C@@H](c2cc(Cl)c(Cl)c(Cl)c2)C(F)(F)F)cc1C(F)(F)F` (single isomer, unassigned) [Compound F8B], the pest or weed control at 50 µg/cm2, 50 µg/cm2 in assay [1] and in assay [2] was 50 to 100% in each case.
Regarding `O=C(NC1(C(=O)NCC(F)(F)F)CC1)c1ccc(/C=C/C(c2ccc(Br)c(Br)c2)C(F)(F)F)cc1C(F)(F)F` (stereo not shown) [Compound P425], the pest or weed control at 50 µg/cm2 in assay [1] and in assay [2] was 50 to 100% throughout.
With `O=C(NC1CC1(F)F)c1ccc(/C=C/C(c2cc(Cl)c(Cl)c(Cl)c2)C(F)(F)F)cc1Br` (stereo not shown) [Compound P31], the pest or weed control at 50 µg/cm2 in assay [1] and in assay [2] was 50 to 100% throughout.
As to `O=C(NC1(C(=O)NCC(F)(F)F)CC1)c1ccc(/C=C/C(c2ccc(Br)c(Br)c2)C(F)(F)F)cc1Br` (stereo not shown) [Compound P423], the pest or weed control at 50 µg/cm2 in assay [1] and in assay [2] was 50 to 100% in each case.
Turning to `O=C(NC1(C(=O)NCC(F)(F)F)CC1)c1ccc(/C=C/C(c2cc(Cl)cc(Br)c2)C(F)(F)F)cc1Br` (stereo not shown) [Compound P378], the pest or weed control at 50 µg/cm2 in assay [1] and in assay [2] was 50 to 100% in each case.
For the compound `O=C(NC1(C(=O)NCC(F)(F)F)CC1)c1ccc(/C=C/C(c2cc(Cl)cc(Cl)c2)C(F)(F)F)cc1Br` (stereo not shown) [Compound P1048], the pest or weed control at 50 µg/cm2 in assay [1] and in assay [2] was 50 to 100% throughout.
With `Cc1cc(C(/C=C/c2ccc(C(=O)NC3(C(=O)NCC(F)(F)F)CC3)c(C(F)(F)F)c2)C(F)(F)F)cc(C)c1F` (stereo not shown) [Compound P335], the pest or weed control at 50 µg/cm2 in assay [1] and in assay [2] was 50 to 100% each time.
Turning to `O=C(NC1(C(=S)NCC(F)(F)F)CC1)c1ccc(/C=C/C(c2cc(Cl)c(Cl)c(Cl)c2)C(F)(F)F)cc1Cl` (stereo not shown) [Compound P1010], the pest or weed control at 50 µg/cm2 in assay [1] and in assay [2] was 50 to 100% in each case.
As for `O=C(NC1(C(=O)NCC(F)(F)F)CC1)c1ccc(/C=C/C(c2cc(Cl)c(Cl)c(Cl)c2)C(F)(F)C(F)(F)F)cc1C(F)(F)F` (stereo not shown) [Compound P1005], the pest or weed control at 50 µg/cm2 in assay [1] and in assay [2] was 50 to 100% each time.
